Where “and” joins values, the source holds several entries; their conditions need not be identical. Equal values may be shown once.
Legend:
Format in all cases: cell-based, Mycobacterium tuberculosis
[1] = tested on: rRUFI M. tuberculosis strains (clpC1 mutants)
[2] = tested on: rECU M. tuberculosis strains (clpC1 mutants)
[3] = tested on: M. tuberculosis clinical isolates (pan-susceptible, MDR, XDR)

Molecule | MIC [1] | MIC [2] | activity against monoresistant, MDR, and XDR strains [3]
NNC(=O)c1ccncc1 [INH, isoniazid] | 0.22 µM and 0.23 µM and 0.12 µM and 0.24 µM |  | 
CC(=O)NC[C@H]1CN(c2ccc(N3CCOCC3)c(F)c2)C(=O)O1 [LZD, linezolid] |  | 2.5 µM and 1.9 µM and 1.6 µM | 
O=[N+]([O-])c1cn2c(n1)OC[C@@H](OCc1ccc(OC(F)(F)F)cc1)C2 [PA824, pretomanid] | <0.031 µM and 0.041 µM and 0.046 µM | <0.031 µM | 
C/C=C/C[C@@H]1NC(=O)[C@H](CC(C)C)N2C(=O)C(C[C@H](C)[C@H]2O)N(C)C(=O)[C@H](C)NC(=O)[C@H](Cc2ccc(O)c([N+](=O)[O-])c2)NC(=O)[C@H](CC(C)C)N(C)C(=O)[C@H](Cc2cn(C(C)(C)C3CO3)c3ccccc23)NC1=O (some centres unmarked) [RUFI, rufomycin I] |  | <0.01 µM and 0.017 µM | maintains activity
[H]/N=C(/N)N[C@H]1[C@H](O)[C@@H](O)[C@H](O[C@@H]2O[C@@H](C)[C@](O)(C=O)[C@H]2O[C@@H]2O[C@@H](CO)[C@H](O)[C@@H](O)[C@@H]2NC)[C@@H](N/C(N)=N\[H])[C@@H]1O [STR, streptomycin] |  | 0.15 µM and 0.16 µM | 
capreomycin |  | 0.42 µM and 0.49 µM | 
